# Measured values from patent US20260200913A1, “ATROPISOMERS OF MAT2A INHIBITORS” (IDEAYA Biosciences, Inc., priority 2022, published 2026).
# Legend:
# [1] = target: T1, Human MAT2A (Homo sapiens, UniProt P31153); experiment: Phosphate Sensor Fluorescence Assay (MAT2A enzyme inhibition); assay type: biochemical; conditions: 5.8 nM MAT2A (1-395), 500 uM L-methionine, 500 uM ATP, 1 hour at room temperature, fluorescence at 450 nm
# T1 construct: Human MAT2A: Cepter, amino acids 1-395 Clone ID 334; purchased Cepter Clone ID 334, lot 00023-148
# T1 sequence (P31153 whole entry, the tested form may be a part): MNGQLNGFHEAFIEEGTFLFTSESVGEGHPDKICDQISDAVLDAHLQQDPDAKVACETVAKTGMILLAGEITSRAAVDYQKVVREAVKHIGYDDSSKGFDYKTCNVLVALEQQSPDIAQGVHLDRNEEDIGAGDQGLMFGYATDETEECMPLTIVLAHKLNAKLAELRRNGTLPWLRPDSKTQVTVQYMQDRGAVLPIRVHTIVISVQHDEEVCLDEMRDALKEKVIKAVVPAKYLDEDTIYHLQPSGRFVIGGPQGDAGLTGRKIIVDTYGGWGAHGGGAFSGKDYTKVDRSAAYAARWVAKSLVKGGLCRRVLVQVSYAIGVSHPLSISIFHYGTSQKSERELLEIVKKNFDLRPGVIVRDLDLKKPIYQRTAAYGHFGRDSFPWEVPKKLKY
# Procedure: MAT2A enzyme is incubated with a test compound in DMSO or DMSO and its substrates (L-methionine and ATP) in a microtiter plate. The enzymatic reaction is stopped by the addition of Working Phosphate Sensor Mixture. The plate is analyzed for fluorescence at 450 nm. The high control (DMSO with enzyme and its substrates) gives high fluorescence which represents no inhibition of enzymatic activity while the low control (DMSO with MAT2A substrates and no enzyme) gives low fluorescence which represents full inhibition of enzymatic activity. […]
# For the assay, a mixture of 1 mM L-methionine/1 mM ATP (2× final pre-stopped concentration) in assay buffer: MAT2A (2× final pre-stopped concentration) in Assay Buffer and Working Phosphate Sensor Mixture (1.5 uM Phosphate Sensor/30 mM EDTA in Assay Buffer, which is 3× final concentrations) were prepared. […] The plate was read for fluorescence at 450 nm after exciting at 430 nm on a Tecan Spark microplate reader.
# Percent inhibition was calculated in Chemical and Biological Information System (CBIS), (ChemInnovation Software Inc.). […]
# [2] = system: HCT116 MTAP null cells; experiment: HCT116 MTAP-Null Cell Line Viability; assay type: cell-based; conditions: final count 4-5 days post treatment (IncuCyte, GFP), normalized to DMSO wells
# Procedure: Preparation: HCT116 WT and MTAP null cells were cultured in DMEM/F12+10% FBS at 37° C. Left the media, dissociation reagent, and PBS in room temperature at least 1 hr prior to start.
# Process: Washed cells with 5 mL of PBS, aspirate the PBS. Added 1 mL of dissociation reagent (Trypsin, Gibco #25200114) and left at room temperature for 2-5 mins. When cells were detached, added 5 ml of fresh media. Cells were collected into a 10 mL tube and centrifuged at 1000 rpm for 5 minutes at room temperature. Aspirated media, resuspended in 5 mL fresh media, and counted on Bio-Rad TC20 Cell Counter. Based on the count and the table below, added cells to a clear flat bottom, TC-treated 384-well plate (Corning #3764).
# Treated the cells the next day post splitting. Used a 10 mM stock of compound.
# Process: Compound treatment was applied to cells using a Tecan D300e digital dispenser with a high concentration 20 micromolar and 3-fold serial dilutions over 9 concentrations in triplicate on a 384-well plate.
# 4-5 days post treatment, used a Live-Cell Analysis System (IncuCyte®) suitable for reading GFP to do a final count. Raw data were normalized based on the average value of the DMSO wells on each plate.
SMILES,IC50 [1] [nM],EC50 [2] [nM]
"Nc1nc(=O)n(-c2ccccc2Cl)c2nc(C(F)(F)F)ccc12 (atropisomer, axis not shown) [Atropisomer Ib]",60,149
"Nc1nc(=O)n(-c2ccccc2Cl)c2nc(C(F)(F)F)ccc12 (single isomer, unassigned) [Atropisomer Ia]",3,20
